Assay results as given in patent US12686673B2 (Blueprint Medicines Corporation, priority 2020, dated 2026).
Where a name gives a salt, the structure may show the parent alone.

Columns and labels:
Assay type in all cases: cell-based
[1] = target: EGFR(D770_N771insSVD) expressing Ba/F3 stable cell line (Homo sapiens, UniProt P00533, DUP768-770, cells depend on it); experiment: Cellular proliferation (Alamar Blue) assay, EGFR D770_N771insSVD Ba/F3; details: 72 hr, read-out: D770 IC50
Experimental: (§1) • 1. EGFR(D770_N771insSVD) expressing Ba/F3 stable cell line • 2. EGFR (A767_dupASV) expressing Ba/F3 stable cell line • 3. A431 cells • 4. EGFR (H773insNPH) expressing Ba/F3 stable cell line • 5. HER2 (A775_G776insYVMA) expressing Ba/F3 stable cell line Assay Procedure: • 1. Seed cells at 5000 for A431 and 15,000 cells for Ba/F3 in 100 μL/well in complete media (for A431: DMEM with […] and for Ba/F3 cells: RPMI with 10% FBS) in 96-well tissue culture plate. Leave outer wells without cells for background measurements. Incubate at 37 degree Celsius in […] humidified incubator for 16-18 hours. • 2. Add 0.025 ml of 5× concentration compound dilution or DMSO control. Final compound concentration range is 10-0.0005 μM prepared in 3-fold serial dilutions. Incubate for 72 hr at 37 degree Celsius in […] humidified incubator. • 3. Add 0.0125 ml Alamar Blue™ reagent to each well with multi-channel pipette and tap gently on each side of the plate to mix. Incubate for 3 hours at 37 degree Celsius in 5% CO2 humidified incubator. • 4. […] Data analysis was performed using XLfit 5.5.0.5.

[2] = tested on: A431 cells; experiment: Cellular proliferation (Alamar Blue) assay, A431; details: Homo sapiens, A-431; A431 cells, Alamar Blue, 72 hr; read-out: A431 IC50
Experimental: as §1

[3] = target: EGFR (A767_dupASV) expressing Ba/F3 stable cell line (Homo sapiens, UniProt P00533, DUP767-769, cells depend on it); experiment: Cellular proliferation (Alamar Blue) assay, EGFR A767_dupASV Ba/F3; details: 72 hr, read-out: A767 IC50
Chain of EGFR (A767_dupASV) expressing Ba/F3 stable cell line (P00533 with tags, fused parts or gaps DUP767-769): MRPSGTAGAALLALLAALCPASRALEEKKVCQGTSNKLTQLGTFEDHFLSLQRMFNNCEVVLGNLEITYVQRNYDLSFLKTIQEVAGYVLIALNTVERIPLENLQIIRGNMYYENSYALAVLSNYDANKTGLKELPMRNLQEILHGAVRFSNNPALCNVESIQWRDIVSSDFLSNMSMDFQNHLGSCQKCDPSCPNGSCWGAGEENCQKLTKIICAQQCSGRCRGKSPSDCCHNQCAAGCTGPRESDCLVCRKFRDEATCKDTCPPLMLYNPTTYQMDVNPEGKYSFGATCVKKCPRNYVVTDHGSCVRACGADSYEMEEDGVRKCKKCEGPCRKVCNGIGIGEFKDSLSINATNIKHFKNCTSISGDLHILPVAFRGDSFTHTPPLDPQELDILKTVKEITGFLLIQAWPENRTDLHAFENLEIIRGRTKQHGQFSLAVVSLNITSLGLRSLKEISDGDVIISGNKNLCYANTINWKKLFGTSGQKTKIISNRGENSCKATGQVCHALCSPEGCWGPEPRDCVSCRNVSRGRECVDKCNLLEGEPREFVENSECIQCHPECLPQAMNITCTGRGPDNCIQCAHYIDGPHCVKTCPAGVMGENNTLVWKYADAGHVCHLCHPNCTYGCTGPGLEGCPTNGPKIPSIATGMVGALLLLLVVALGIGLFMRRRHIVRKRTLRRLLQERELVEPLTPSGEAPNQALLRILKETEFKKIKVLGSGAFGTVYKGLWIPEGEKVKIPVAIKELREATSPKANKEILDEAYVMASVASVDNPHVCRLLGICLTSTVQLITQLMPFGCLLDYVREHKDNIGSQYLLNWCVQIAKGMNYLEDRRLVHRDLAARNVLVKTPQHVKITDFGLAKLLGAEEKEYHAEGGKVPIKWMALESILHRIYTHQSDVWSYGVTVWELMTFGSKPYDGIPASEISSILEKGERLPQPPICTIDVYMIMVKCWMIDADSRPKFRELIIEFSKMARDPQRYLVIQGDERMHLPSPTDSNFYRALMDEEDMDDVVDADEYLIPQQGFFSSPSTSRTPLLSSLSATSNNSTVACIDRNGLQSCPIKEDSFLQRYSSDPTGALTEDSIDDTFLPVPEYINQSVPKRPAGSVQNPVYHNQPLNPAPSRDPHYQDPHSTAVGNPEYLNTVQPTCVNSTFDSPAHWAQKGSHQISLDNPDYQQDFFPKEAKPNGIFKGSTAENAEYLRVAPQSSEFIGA
Experimental: as §1

Chain of EGFR(D770_N771insSVD) expressing Ba/F3 stable cell line (P00533 with tags, fused parts or gaps DUP768-770): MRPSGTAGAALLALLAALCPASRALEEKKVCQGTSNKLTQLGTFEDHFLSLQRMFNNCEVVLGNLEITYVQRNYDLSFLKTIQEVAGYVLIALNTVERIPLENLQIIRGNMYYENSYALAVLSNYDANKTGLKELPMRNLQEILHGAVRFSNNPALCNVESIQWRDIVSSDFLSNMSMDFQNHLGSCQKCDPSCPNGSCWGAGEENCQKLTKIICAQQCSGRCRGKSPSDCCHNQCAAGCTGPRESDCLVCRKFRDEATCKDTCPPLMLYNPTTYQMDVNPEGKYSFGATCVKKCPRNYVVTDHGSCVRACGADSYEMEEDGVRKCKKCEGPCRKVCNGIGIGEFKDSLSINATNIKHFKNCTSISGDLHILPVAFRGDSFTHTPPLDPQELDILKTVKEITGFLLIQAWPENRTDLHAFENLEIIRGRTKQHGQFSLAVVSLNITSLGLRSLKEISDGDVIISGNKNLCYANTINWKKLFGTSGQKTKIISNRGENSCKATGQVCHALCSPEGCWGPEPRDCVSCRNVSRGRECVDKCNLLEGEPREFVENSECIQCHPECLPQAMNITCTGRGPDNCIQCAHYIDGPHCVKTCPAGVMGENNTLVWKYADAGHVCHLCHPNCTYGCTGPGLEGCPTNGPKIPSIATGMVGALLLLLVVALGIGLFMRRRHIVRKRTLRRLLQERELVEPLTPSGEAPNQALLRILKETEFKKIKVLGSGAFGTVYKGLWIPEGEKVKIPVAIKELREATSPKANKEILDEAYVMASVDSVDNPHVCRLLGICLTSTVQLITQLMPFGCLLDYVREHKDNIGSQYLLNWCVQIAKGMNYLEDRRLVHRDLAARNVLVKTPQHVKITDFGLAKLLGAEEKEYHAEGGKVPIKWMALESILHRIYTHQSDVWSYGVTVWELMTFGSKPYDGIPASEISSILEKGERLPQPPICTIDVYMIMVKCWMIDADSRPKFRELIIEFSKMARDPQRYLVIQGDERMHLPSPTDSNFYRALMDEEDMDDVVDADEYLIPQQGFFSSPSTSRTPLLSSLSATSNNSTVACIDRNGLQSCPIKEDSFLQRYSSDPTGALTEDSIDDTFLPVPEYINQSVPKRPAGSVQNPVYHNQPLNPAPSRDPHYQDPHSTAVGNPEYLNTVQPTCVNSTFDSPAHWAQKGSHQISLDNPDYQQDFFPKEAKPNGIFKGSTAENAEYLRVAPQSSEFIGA

| Structure (SMILES) | GI50 [1] | IC50 [2] | GI50 [3] |
| --- | --- | --- | --- |
| C=CC(=O)Nc1ccc(F)c(Nc2nc(Nc3ccn(C)n3)ncc2-c2ccc(C(F)(F)F)cc2)c1 [Compound 113, N-(4-fluoro-3-((2-((1-methyl-1H-pyrazol-3-yl)amino)-5-(4-(trifluoromethyl)phenyl)pyrimidin-4-yl)amino)phenyl)acrylamide trifluoroacetate] | 0.317 µM | 0.201 µM | 0.263 µM |
| C=CC(=O)Nc1ccc(F)c(Nc2nc(Nc3cnn(C)c3)ncc2C2=CCN(C)CC2)c1 [Compound 114, N-(4-fluoro-3-((5-(1-methyl-1,2,3,6-tetrahydropyridin-4-yl)-2-((1-methyl-1H-pyrazol-4-yl)amino)pyrimidin-4-yl)amino)phenyl)acrylamide] | 1.84 µM | 0.816 µM | 0.964 µM |
| C=CC(=O)Nc1ccc(N(C)C)c(Nc2nc(Nc3cnn(C)c3)ncc2-c2ccc(C(F)(F)F)cc2)c1 [Compound 119, N-(4-(dimethylamino)-3-((2-((1-methyl-1H-pyrazol-4-yl)amino)-5-(4-(trifluoromethyl)phenyl)pyrimidin-4-yl)amino)phenyl)acrylamide trifluoroacetate] | > 10 µM | > 10 µM | > 10 µM |
| C=CC(=O)Nc1ccc(F)c(Nc2nc(Nc3cnn(C)c3)ncc2C2CC2)c1 [Compound 120, N-(3-((5-cyclopropyl-2-((1-methyl-1H-pyrazol-4-yl)amino)pyrimidin-4-yl)amino)-4-fluorophenyl)acrylamide trifluoroacetate] | 0.967 µM | 3.8 µM | 0.875 µM |
| C=CC(=O)Nc1ccc(F)c(Nc2nc(Nc3ccccc3)ncc2-c2ccc(C(F)(F)F)cc2)c1 [Compound 121, N-(4-fluoro-3-((2-(phenylamino)-5-(4-(trifluoromethyl)phenyl)pyrimidin-4-yl)amino)phenyl)acrylamide] | 2.87 µM | 1.28 µM | > 10 µM |
| C=CC(=O)Nc1ccc(F)c(Nc2nc(Nc3ccc(F)cc3)ncc2-c2ccc(C(F)(F)F)cc2)c1 [Compound 122, N-(4-fluoro-3-((2-((4-fluorophenyl)amino)-5-(4-(trifluoromethyl)phenyl)pyrimidin-4-yl)amino)phenyl)acrylamide trifluoroacetate] | 1.99 µM | 3.69 µM | > 10 µM |
| C=CC(=O)Nc1ccc(F)c(Nc2nc(Nc3cnn(C)c3)ncc2C2=CCOCC2)c1 [Compound 124, N-(3-((5-(3,6-dihydro-2H-pyran-4-yl)-2-((1-methyl-1H-pyrazol-4-yl)amino)pyrimidin-4-yl)amino)-4-fluorophenyl)acrylamide] | 0.328 µM | 1.53 µM | 0.284 µM |
| C=CC(=O)Nc1ccc(F)c(Nc2nc(Nc3cnn(C)c3)ncc2-c2cccc(CN(C)C)c2)c1 [Compound 134, N-(3-((5-(3-((dimethylamino)methyl)phenyl)-2-((1-methyl-1H-pyrazol-4-yl)amino)pyrimidin-4-yl)amino)-4-fluorophenyl)acrylamide] | > 10 µM | 3.28 µM | 8.41 µM |
| C=CC(=O)Nc1ccc(F)c(Nc2nc(Nc3cnn(C)c3)ncc2-c2ccc(S(N)(=O)=O)cc2)c1 [Compound 138, N-(4-fluoro-3-((2-((1-methyl-1H-pyrazol-4-yl)amino)-5-(4-sulfamoylphenyl)pyrimidin-4-yl)amino)phenyl)acrylamide] | 3.14 µM | > 10 µM | 2.88 µM |
| C=CC(=O)Nc1ccc(F)c(Nc2nc(Nc3cnn(C)c3)ncc2-c2cccc(OC(F)F)c2)c1 [Compound 143, N-(3-((5-(3-(difluoromethoxy)phenyl)-2-((1-methyl-1H-pyrazol-4-yl)amino)pyrimidin-4-yl)amino)-4-fluorophenyl)acrylamide trifluoroacetate] | 0.276 µM | 0.235 µM | 0.3 µM |
| C=CC(=O)Nc1ccc(F)c(Nc2nc(Nc3cnn(C)c3)ncc2-c2cccc(N(C)C)c2)c1 [Compound 145, N-(3-((5-(3-(dimethylamino)phenyl)-2-((1-methyl-1H-pyrazol-4-yl)amino)pyrimidin-4-yl)amino)-4-fluorophenyl)acrylamide] | 0.911 µM | 3.98 µM | 2.02 µM |
| C=CC(=O)Nc1ccc(F)c(Nc2nc(Nc3cnn(C)c3)cnc2Cl)c1 [Compound 153, N-(3-((3-chloro-6-((1-methyl-1H-pyrazol-4-yl)amino)pyrazin-2-yl)amino)-4-fluorophenyl)acrylamide] | > 10 µM | > 10 µM | > 10 µM |
| C=CC(=O)Nc1cccc(Oc2nc(Nc3cnn(C)c3)cnc2Cl)c1 [Compound 154, N-(3-((3-chloro-6-((1-methyl-1H-pyrazol-4-yl)amino)pyrazin-2-yl)oxy)phenyl)acrylamide] | > 10 µM | > 10 µM | > 10 µM |
| C=CC(=O)Nc1ccc(F)c(Nc2nc(Nc3cnn(C)c3)nnc2Cl)c1 [Compound 155, N-(3-((6-chloro-3-((1-methyl-1H-pyrazol-4-yl)amino)-1,2,4-triazin-5-yl)amino)-4-fluorophenyl)acrylamide] | 1.41 µM | 6.46 µM | 2.48 µM |
| C=CC(=O)Nc1ccc(C(=O)Nc2ccccc2)c(Nc2nc(Nc3cnn(C)c3)ncc2Cl)c1 [Compound 163, 2-({5-chloro-2-[(1-methyl-1H-pyrazol-4-yl)amino]pyrimidin-4-yl}amino)-N-phenyl-4-(prop-2-enamido) benzamide] | > 10 µM | 8.25 µM | 9.44 µM |
| C=CC(=O)Nc1ccc(C(F)(F)F)c(Oc2nc(Nc3cnn(C)c3)ncc2Cl)c1 [Compound 169, N-(3-((5-chloro-2-((1-methyl-1H-pyrazol-4-yl)amino)pyrimidin-4-yl)oxy)-4-(trifluoromethyl)phenyl)acrylamide] | > 10 µM | 9.69 µM | 8.95 µM |
| C=CC(=O)Nc1ccc(OC)c(Oc2nc(Nc3cnn(CCO)c3)ncc2Cl)c1 [Compound 171, N-(3-((5-chloro-2-((1-(2-hydroxyethyl)-1H-pyrazol-4-yl)amino)pyrimidin-4-yl)oxy)-4-methoxyphenyl)acrylamide] | > 10 µM | > 10 µM | > 10 µM |
| CN(C)C/C=C/C(=O)Nc1cccc(F)c1CNc1nc(Nc2cnn(C)c2)ncc1Cl [Compound 174, (E)-N-(2-(((5-chloro-2-((1-methyl-1H-pyrazol-4-yl)amino)pyrimidin-4-yl)amino)methyl)-3-fluorophenyl)-4-(dimethylamino)but-2-enamide] | > 10 µM | > 10 µM | > 10 µM |
| C=CC(=O)Nc1ccc(C#Cc2ccccc2)c(Nc2nc(Nc3cnn(C)c3)ncc2Cl)c1 [Compound 178, N-[3-({5-chloro-2-[(1-methyl-1H-pyrazol-4-yl)amino]pyrimidin-4-yl}amino)-4-(2-phenylethynyl)phenyl] prop-2-enamide] | > 10 µM | 9.97 µM | > 10 µM |
| C=CC(=O)Nc1ccc(F)c(Nc2nc(NC3CC3)ncc2-c2ccc(C(F)(F)F)cc2)c1 [Compound 180, N-(3-{[2-(cyclopropylamino)-5-[4-(trifluoromethyl)phenyl]pyrimidin-4-yl]amino}-4-fluorophenyl)prop-2-enamide] | > 10 µM | > 10 µM | > 10 µM |
| C=CC(=O)Nc1ccc(F)c(Nc2nc(NC3CCC3)ncc2-c2ccc(C(F)(F)F)cc2)c1 [Compound 181, N-(3-((2-(cyclobutylamino)-5-(4-(trifluoromethyl)phenyl)pyrimidin-4-yl)amino)-4-fluorophenyl)acrylamide] | > 10 µM | > 10 µM | > 10 µM |
| C=CC(=O)Nc1cccc(Oc2cc(Nc3cnn(C)c3)ncc2-c2ccc(C(F)(F)F)cc2)c1 [Compound 182, N-[3-({2-[(1-methyl-1H-pyrazol-4-yl)amino]-5-[4-(trifluoromethyl)phenyl]pyridin-4-yl}oxy)phenyl]prop-2-enamide; trifluoroacetic acid] | 9.98 µM | 6.11 µM | 7.47 µM |
| C=CC(=O)Nc1cccc(Oc2nc(Nc3cnn(C)c3)ncc2-c2cncc(C)c2)c1 [Compound 183, N-[3-({2-[(1-methyl-1H-pyrazol-4-yl)amino]-5-(5-methylpyridin-3-yl)pyrimidin-4-yl}oxy)phenyl]prop-2-enamide] | 0.32 µM | 0.292 µM | 0.286 µM |
| C=CC(=O)Nc1cccc(Oc2nc(Nc3ccccc3Cl)ncc2-c2ccc(C(F)(F)F)cc2)c1 [Compound 189, N-(3-((2-((2-chlorophenyl)amino)-5-(4-(trifluoromethyl)phenyl)pyrimidin-4-yl)oxy)phenyl)acrylamide] | > 10 µM | 8.13 µM | > 10 µM |
| C=CC(=O)Nc1cccc(Oc2nc(Nc3cnn(C)c3)ncc2C2=CCN(C)CC2)c1 [Compound 190, N-(3-((5-(1-methyl-1,2,3,6-tetrahydropyridin-4-yl)-2-((1-methyl-1H-pyrazol-4-yl)amino)pyrimidin-4-yl)oxy)phenyl)acrylamide] | 8.86 µM | 6.76 µM | 9.04 µM |
